US20240366739A1, “MEDICAMENT FOR TREATMENT AND/OR PREVENTION OF CANCER” (TORAY INDUSTRIES, INC., priority 2021, published 2024)

Test system: mouse lymphoma cell line EG7 (OVA-expressing cancer cells) subcutaneously transplanted
Assay: in vivo antitumor effect in cancer-bearing mice (tumor volume measured with calipers)
Details: Example 6; C57BL/6NCR mice with EG7 tumors; particle 0.5 mg s.c. once a week x2 from day 7; Poly(I:C) 50 μg into tumors twice a week x4; mixture given s.c.

## Poly(I:C)
  tumor growth / regression (tumor volume): not changed compared to negative controls
